From the supplement of paper PMC3974653
Where a name gives a salt, the structure may show the parent alone.

System: MTT (mouse pheochromocytoma)
Test: IC50 of cell viability (ATP content)
Conditions: (24 or 48 h)
How it was run: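 CellTiter-Glo ATP luminescence, read after 15 minutes, was used to assess MTT mouse pheochromocytoma cells treated for 24 or 48 hrs with library compounds (final 0.5 nM to 46 µM, 8 concentrations). The cells had been plated at 5 µl of 200,000 cells/ml per well in white 1536-well plates in DMEM with 5% FBS and 1% horse serum and cultured overnight at 37°C, 5% CO2. Normalisation set positive-control wells to 100% and DMSO wells to 0%. The IC50 was then determined by four-parameter logistic fitting.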

Row | SMILES | IC50 of cell viability [µM]
1 | CC1(C(=O)O)CCC2(C)CCC3(C)C(=CC(=O)[C@@H]4C5(C)CC[C@H](O[C@H]6O[C@H](C(=O)O)C(O)C(O)[C@H]6O[C@@H]6O[C@H](C(=O)O)C(O)C(O)C6O)C(C)(C)[C@@H]5CCC43C)[C@@H]2C1 (stereo not given in full) [GLYCYRRHIZIC ACID, MONOSODIUM SALT] | > 46
2 | N=C(N)N.O=C(O)O [GUANIDINE CARBONATE] | > 46
3 | NCC1(CC(=O)O)CCCCC1 [Gabapentin] | > 46
4 | CCOC(=O)c1ccc(OC(=O)CCCCCNC(=N)N)cc1.C[S+](=O)([O-])O [Gabexate mesilate] | > 46
5 | OCC1OC(O)C(O)C(O)C1O (stereo not given) [Galactose] | > 46
6 | O=C(O)c1cc(O)c(O)c(O)c1 [Gallic acid] | > 46
7 | CCCCC/C=C\C/C=C\C/C=C\CCCCC(=O)O [Gamolenic acid] | > 46
8 | N\C1=N\C2=C(N=C[N]2COC(CO)CO)C(=O)N1 [Ganciclovir] | > 46
9 | CN[C@@H](C)[C@H]1CC[C@@H](N)[C@H](O[C@@H]2[C@@H](O)[C@H](O[C@@H]3OC[C@@](C)(O)[C@@H](NC)[C@H]3O)[C@H](N)C[C@@H]2N)O1.CN[C@H]1[C@@H](O)[C@H](O[C@H]2[C@H](O)[C@@H](O[C@@H]3O[C@@H](CN)CC[C@H]3N)[C@@H](N)C[C@H]2N)OC[C@@]1(C)O.CN[C@H]1[C@@H](O)[C@H](O[C@H]2[C@H](O)[C@@H](O[C@@H]3O[C@@H]([C@H](C)N)CC[C@H]3N)[C@@H](N)C[C@H]2N)OC[C@@]1(C)O.O=[S+]([O-])(O)O [Gentamicine sulfate] | > 46
10 | CC(C)=CCC/C(C)=C/CC/C(C)=C/CCC(=O)OC/C=C(\C)CCC=C(C)C [Geranyl farnesylacetate] | > 46
11 | O=C1O[C@H]2[C@@H](OC(O)[C@@H]2O)[C@H]1O (stereo not given in full) [Glucuronolactone] | > 46
12 | O=CCCCC=O [Glutaraldehyde (Glutaric dialdehyde)] | > 46
13 | CC[C@@]1(c2ccc(N)cc2)CCC(=O)NC1=O [Glutethimide, para-amino] | > 46
14 | CCC1(c2ccccc2)CCC(=O)NC1=O (stereo not given) [Glutethimide] | > 46
15 | O=P([O-])([O-])OC(CO)CO [Glycerol phosphate calcium salt] | > 46
16 | NCC(=O)O [Glycine] | > 46
17 | CCCCCCCCCCCCCCCCCC(=O)OCCO [Glycol stearate] | > 46
18 | O=CC=O [Glyoxal] | > 46
19 | COc1cc2c(c(OC)c1OC)-c1c(cc3c(c1OC)OCO3)CC(C)C(C)(O)C2 (stereo not given) [Gomisin A] | > 46
20 | Cc1cc2c(C(C)C)c(O)c(O)c(C=O)c2c(O)c1-c1c(C)cc2c(C(C)C)c(O)c(O)c(C=O)c2c1O [Gossypol] | > 46
21 | COC1=CC(=C2C(=O)[C@]\3(OC2=C1Cl)[C@H](C)CC(=O)\C=C3OC)OC [Griseofulvin] | > 46
22 | N=C(N)NCCCCCCC(=O)NC(O)C(=O)NCCCCNCCCN (stereo not given) [Gusperimus trihydrochloride] | > 46

Other lines, results leading:

Row | IC50 of cell viability [µM] | SMILES
23 | > 46 | O=C(NN1CCCC1)N[S+](=O)([O-])c1ccc(Cl)cc1 [GLYCLOPYRAMIDE]
24 | > 46 | Cc1ccc(S(=O)(=O)NC(=O)NC2CCCCCCC2)cc1 [GLYOCTAMIDUM]
25 | > 46 | COc1ccc([S+](=O)([O-])Nc2nnc(CC(C)C)s2)cc1 [GLYSOBUZOLUM]
26 | > 46 | CC(C)CC(NC(=O)CNC(=O)C(Cc1ccc(O)cc1)NC(=O)C(CO)NC(=O)C(Cc1c[nH]c2ccccc12)NC(=O)C(Cc1c[nH]cn1)NC(=O)C1CCC(=O)N1)C(=O)NC(CCCNC(=N)N)C(=O)N1CCCC1C(=O)NCC(N)=O (stereo not given) [GONADORELIN]
27 | > 46 | CC(C)CC(NC(=O)C(COC(C)(C)C)NC(=O)C(Cc1ccc(O)cc1)NC(=O)C(CO)NC(=O)C(Cc1c[nH]c2ccccc12)NC(=O)C(Cc1cnc[nH]1)NC(=O)C1CCC(=O)N1)C(=O)NC(CCCN=C(N)N)C(=O)N1CCCC1C(=O)NNC(N)=O (stereo not given) [GOSERELIN ACETATE]
28 | > 46 | CC(C)C[C@@H](NC(=O)[C@@H](COC(C)(C)C)NC(=O)[C@H](Cc1ccc(O)cc1)NC(=O)[C@@H](CO)NC(=O)[C@@H](Cc1c[nH]c2ccccc12)NC(=O)[C@@H](Cc1c[nH]cn1)NC(=O)[C@@H]1CCC(=O)N1)C(=O)N[C@H](CCCNC(=N)N)C(=O)N1CCC[C@H]1C(=O)NNC(N)=O [GOSERELIN ACETATE]
29 | > 46 | Cc1c(F)c(N2CCNC(C)C2)cc2c1c(=O)c(C(=O)O)cn2C1CC1 (stereo not given) [GREPAFLOXACIN HYDROCHLORIDE]
30 | > 46 | N=C(N)N/N=C/c1c(Cl)cccc1Cl [GUANABENZ]
31 | > 46 | N=C(N)NC(=O)Cc1c(Cl)cccc1Cl [GUANFACINE]
32 | > 46 | C[C@H]1NCc2cc(-c3ccc4c(=O)c(C(=O)O)cn(C5CC5)c4c3OC(F)F)ccc21 [Garenoxacin]
33 | > 46 | COc1cc2ncnc(Nc3ccc(F)c(Cl)c3)c2cc1OCCCN1CCOCC1 [Gefitinib]
34 | > 46 | Cc1ccc(C)c(OCCCC(C)(C)C(=O)O)c1 [Gemfibrozil]
35 | > 46 | O=C(OC[C@@H](O)CO)c1ccccc1Nc1ccnc2cc(Cl)ccc12 [Glafenine hydrochloride]
36 | > 46 | Cc1ccc([S+](=O)([O-])NC(=O)NN2C[C@H]3CCC[C@@H]3C2)cc1 [Gliclazide]
37 | > 46 | CC\C1=C(/C)CN(C(=O)NCCC2=CC=C(C=C2)[S+]([O-])(=O)NC(=O)NC3CCC(C)CC3)C1=O (stereo not given) [Glimepiride]
38 | > 46 | COc1ccc2c(c1)C(=O)N(CCc1ccc([S+](=O)([O-])NC(=O)NC3CCCCC3)cc1)C(=O)C2(C)C [Gliquidone]
39 | > 46 | COc1ccc([S+](=O)([O-])Nc2nnc(CC(C)C)s2)cc1 [Glisobuzol]
40 | > 46 | Cc1cc(C(=O)NCCc2ccc([S+](=O)([O-])NC(=O)NN3CCCCCC3)cc2)no1 [Glisoxepide]
41 | > 46 | C[N+]1(C)CCC(OC(=O)C(O)(c2ccccc2)C2CCCC2)C1 (stereo not given) [Glycopyrrolate bromide]
42 | > 46 | Cc1ccc([S+](=O)([O-])NC(=O)NC2CCCCC2)cc1 [Glycyclamide]
43 | > 46 | COc1cc2c(c(OC)c1OC)-c1c(cc3c(c1OC)OCO3)C[C@@H](C)[C@](C)(O)C2 [Gomisin A]
44 | > 46 | CN1[C@@H]2CCC[C@@H]1CC(NC(=O)c1nn(C)c3ccccc13)C2 (stereo not given in full) [Granisetron Hydrochloride]
45 | > 46 | CCN(CC)CCOc1ccccc1OC [Guaiactamine]
46 | > 46 | COc1ccccc1OC[C@H](O)CO [Guaifenesin]
47 | > 46 | N=C(N)NC[C@@H]1COC2(CCCCC2)O1 [Guanadrel sulfate]
48 | > 46 | N=C(N)NCCN1CCCCCCC1 [Guanethidine sulfate]
49 | > 46 | N=C(N)NCC1COc2ccccc2O1 (stereo not given) [Guanoxano]
50 | > 46 | O=C(O)c1ccc([S+](=O)([O-])N(Cl)Cl)cc1 [HALAZONE]
